Experimental data taken from paper PMC9095466 (Nature, 2022).
Where two headings read alike, the source gives them in different places.

Key:
Experiment in all cases: microbe, parasite or virus in culture
Assay type in all cases: cell-based
[1] = test system: SARS-CoV-2 B.1.1.7 (Alpha); conditions: Calu-3 cells, n = 4
[2] = test system: SARS-CoV-2 B.1.617.2 (Delta); conditions: Calu-3 cells, n = 4
[3] = test system: SARS-CoV-2 B.1.351 (Beta); conditions: Calu-3 cells, n = 4
SARS-CoV-2 P.1 (Gamma) = conditions: Calu-3 cells, n = 4
[4] = test system: SARS-CoV-2 lineage B strain (VIDO); conditions: Severe acute respiratory syndrome coronavirus 2, 72 h; Calu-3 cells, Fig. 3d, n = 4; read-out: EC50, dsRNA staining, Variant B (VIDO-01)

Question: With `CS(=O)(=O)NC(CCC(N)=O)C(=O)NC(Cc1ccccc1)C(=O)NC(CCCNC(=N)N)C(=O)c1nc2ccccc2s1` (stereo not drawn) [Compound N-0385, Ms-QFR-kbt] as the compound, how does the EC50 ([1]; Severe acute respiratory syndrome coronavirus 2, 72 h, Fig. 3d, read-out: EC50, dsRNA staining, Variant B.1.1.7 (Alpha)) read?
Answer: Its EC50 is 2.6 nM.

Question: And the EC50 ([1]; Severe acute respiratory syndrome coronavirus 2, Fig. 3c, read-out: EC50, N staining, Variant B.1.1.7 (Alpha))?
Answer: Its EC50 is 2.1 nM.

Question: What about the EC50 ([2]; Severe acute respiratory syndrome coronavirus 2, 72 h, Fig. 3d, read-out: EC50, dsRNA staining, Variant B.1.617.2 (Delta)) of the same compound?
Answer: Its EC50 is 26.5 nM.

Question: And the EC50 ([2]; Severe acute respiratory syndrome coronavirus 2, Fig. 3c, read-out: EC50, N staining, Variant B.1.617.2 (Delta))?
Answer: The EC50 was 13.9 nM.

Question: And the EC50 ([3]; Severe acute respiratory syndrome coronavirus 2, 72 h, Fig. 3d, read-out: EC50, dsRNA staining, Variant B.1.351 (Beta))?
Answer: The EC50 was 22 nM.

Question: What about the EC50 ([3]; Severe acute respiratory syndrome coronavirus 2, Fig. 3c, read-out: EC50, N staining, Variant B.1.351 (Beta)) of the same compound?
Answer: Its EC50 is 12.8 nM.

Question: And the EC50 (SARS-CoV-2 P.1 (Gamma); Severe acute respiratory syndrome coronavirus 2, 72 h, Fig. 3d, read-out: EC50, dsRNA staining, Variant P.1 (Gamma))?
Answer: Its EC50 is 5.4 nM.

Question: What about the EC50 (SARS-CoV-2 P.1 (Gamma); Severe acute respiratory syndrome coronavirus 2, Fig. 3c, read-out: EC50, N staining, Variant P.1 (Gamma)) of the same compound?
Answer: Its EC50 is 6.5 nM.

Question: What about the EC50 [4] of the same compound?
Answer: Its EC50 is 14.3 nM.
